The test system of experiment [1] is dissociated DRG neurons from adult wild type mice and GSK3α/GSK3β double knock-in mice. The experiment is described as follows: Axon growth of DRG neurons with SB216763 or nocodazole (modulation of microtubule dynamics). To be noted: 2 days in culture.
Description: Dorsal root ganglion (DRG) neurons were isolated from adult wild type (wt) and GSK3α/GSK3β mice as described in Gobrecht et al., Nature communications. […] DRGs (T8-L6) were harvested, incubated in 0.25% trypsin/EDTA (GE Healthcare, Chalfont St Giles, UK) and 0.3% collagenase type IA (Sigma, St. Louis, US-Mo.) in DMEM (Life Technologies, Carlsbad, US-Calif.) at 37° C. and 5% CO2 for 45 min and mechanically dissociated. Cells were resuspended in DMEM containing 10% fetal bovine serum (GE Healthcare) penicillin/streptomycin (500 U/ml; Merck Millipore, Billerica, US-MA) and 5-fluoro-2′-desoxyuridine (100 nM; Sigma). Cells were cultured on poly-D-lysine (PDL, 0.1 mg/ml, molecular weight <300,000 kDa; Sigma) and laminin (20 μg/ml; Sigma) coated 96 well plates (Nunc, Germany) at 37° C. and 5% CO2.
In experiment [2] the test system is dissociated DRG neurons from adult wild type mice. The experiment is described as follows: Axon growth of dissociated adult DRG neurons in culture. The note with it: adult wt DRG neurons, 2 days in culture.
Description: DRGs (T8-L6) were harvested, incubated in 0.25% trypsin/EDTA (GE Healthcare, Chalfont St Giles, UK) and 0.3% collagenase type IA (Sigma, St. Louis, US-Mo.) in DMEM (Life Technologies, Carlsbad, US-Calif.) at 37° C. and 5% CO2 for 45 min and mechanically dissociated. Cells were resuspended in DMEM containing 10% fetal bovine serum (GE Healthcare) penicillin/streptomycin (500 U/ml; Merck Millipore, Billerica, US-MA) and 5-fluoro-2′-desoxyuridine (100 nM; Sigma). Cells were cultured on poly-D-lysine (PDL, 0.1 mg/ml, molecular weight <300,000 kDa; Sigma) and laminin (20 μg/ml; Sigma) coated 96 well plates (Nunc, Germany) at 37° C. and 5% CO2.
The effect of the tubulin carboxypeptidase (TCP) inhibitor parthenolide on axon growth of mature neurons was determined in dissociated DRG neurons from adult wild type mice as described above.
DRGs (T8-L6) were harvested, incubated in 0.25% trypsin/EDTA (GE Healthcare, Chalfont St Giles, UK) and 0.3% collagenase type IA (Sigma, St. Louis, US-Mo.) in DMEM (Life Technologies, Carlsbad, US-Calif.) at 37° C. and 5% CO2 for 45 min and mechanically dissociated. […]
Axonal growth was determined upon 48 h incubation by fixation in 4% PFA (Sigma) and immunocytochemical staining with antibodies against NeuN (1:2,000; Abcam, ab177487, Cambridge, UK) and βIII-tubulin (1:2,000; Covance, Princeton, US-N.J.). […]

Data on three molecules can be found in patent US11298337B2, “Parthenolide and its derivative for use in the treatment of axonal damage” (RUHR-UNIVERSITÄT BOCHUM, priority 2015, dated 2022).

Each structure is given as a SMILES string.

Regarding `COC(=O)Nc1nc2ccc(C(=O)c3cccs3)cc2[nH]1` [nocodazole], the “axon growth, effect on GSK3α^S/A/GSK3β^S/A and parthenolide promoted growth” value in experiment [1] (10 nM nocodazole, alone or with 1 nM parthenolide) is “abrogated the beneficial effects of both GSK3α^S/A/GSK3β^S/A and parthenolide to similar extent”.
In the case of `Cn1cc(C2=C(c3ccc(Cl)cc3Cl)C(=O)NC2=O)c2ccccc21` [SB216763], in experiment [1] (5 μM SB216763, double knock-in DRG neurons), the “axon growth promoted by GSK3α^S/A/GSK3β^S/A” value is “efficiently blocked GSK3α^S/A/GSK3β^S/A promoted axon growth”.
On to `C=C(C(=O)O[C@H]1C/C(C)=C/CC/C(CO)=C/C2OC(=O)C(=C)[C@@H]21)C(O)CO` (stereo in doubt) [cnicin, [(1R,2S,4E,8Z,10S)-8-(hydroxymethyl)-4-methyl-13-methylidene-12-oxo-11-oxabicyclo[8.3.0]trideca-4,8-dien-2-yl] (3S)-3,4-dihydroxy-2-methylidene-butanoate], for which the axon growth entry in experiment [2] (0.1-100 nM, normalized to vehicle) is “significant, but less pronounced axon growth promotion”. Also, the “concentration with strongest effects on axon growth” value in experiment [2] amounted to 0.5 nM.
